Values after ≈ are worked out from the molar mass of the structure shown.
Tests used:
Type in all cases: functional
Rhizoctonia solani [1] = test: Antifungal activity against Rhizoctonia solani after 72 hrs by agar well diffusion method
Staphylococcus aureus [2] = test: Antibacterial activity against Staphylococcus aureus ATCC 6538 after 24 hrs by agar well diffusion method; conditions: ATCC 6538, 24 h
Bacillus subtilis [3] = test: Antibacterial activity against Bacillus subtilis after 24 hrs by agar well diffusion method
Klebsiella pneumoniae [4] = test: Antibacterial activity against Klebsiella pneumoniae at 100 ug/ml after 24 hrs by agar well diffusion method; conditions: read-out: DIZ
Aspergillus niger [5] = test: Antifungal activity against Aspergillus niger at 300 ug/ml after 72 hrs by agar well diffusion method; conditions: read-out: DIZ
Rhizoctonia solani [6] = test: Antifungal activity against Rhizoctonia solani at 200 ug/ml after 72 hrs by agar well diffusion method; conditions: read-out: DIZ
Aspergillus niger [7] = test: Antifungal activity against Aspergillus niger at 50 ug/ml after 72 hrs by agar well diffusion method; conditions: read-out: DIZ
Bacillus subtilis [8] = test: Antibacterial activity against Bacillus subtilis at 100 ug/ml after 24 hrs by agar well diffusion method; conditions: read-out: DIZ
Escherichia coli [9] = test: Antibacterial activity against Escherichia coli ATCC 8739 after 24 hrs by agar well diffusion method; conditions: ATCC 8739, 24 h
Escherichia coli [10] = test: Antibacterial activity against Escherichia coli ATCC 8739 at 500 ug/ml after 24 hrs by agar well diffusion method; conditions: ATCC 8739, 24 h, read-out: DIZ
Aspergillus niger [11] = test: Antifungal activity against Aspergillus niger after 72 hrs by agar well diffusion method
Fusarium oxysporum [12] = test: Antifungal activity against Fusarium oxysporum after 72 hrs by agar well diffusion method
Aspergillus niger [13] = test: Antifungal activity against Aspergillus niger at 500 ug/ml after 72 hrs by agar well diffusion method; conditions: read-out: DIZ
Escherichia coli [14] = test: Antibacterial activity against Escherichia coli ATCC 8739 at 50 ug/ml after 24 hrs by agar well diffusion method; conditions: ATCC 8739, 24 h, read-out: DIZ
Fusarium oxysporum [15] = test: Antifungal activity against Fusarium oxysporum at 100 ug/ml after 72 hrs by agar well diffusion method; conditions: read-out: DIZ
Klebsiella pneumoniae [16] = test: Antibacterial activity against Klebsiella pneumoniae at 200 ug/ml after 24 hrs by agar well diffusion method; conditions: read-out: DIZ
Fusarium oxysporum [17] = test: Antifungal activity against Fusarium oxysporum at 50 ug/ml after 72 hrs by agar well diffusion method; conditions: read-out: DIZ
Staphylococcus aureus [18] = test: Antibacterial activity against Staphylococcus aureus ATCC 6538 at 300 ug/ml after 24 hrs by agar well diffusion method; conditions: ATCC 6538, 24 h, read-out: DIZ
Rhizoctonia solani [19] = test: Antifungal activity against Rhizoctonia solani at 100 ug/ml after 72 hrs by agar well diffusion method; conditions: read-out: DIZ
Bacillus subtilis [20] = test: Antibacterial activity against Bacillus subtilis at 300 ug/ml after 24 hrs by agar well diffusion method; conditions: read-out: DIZ
Staphylococcus aureus [21] = test: Antibacterial activity against Staphylococcus aureus ATCC 6538 at 50 ug/ml after 24 hrs by agar well diffusion method; conditions: ATCC 6538, 24 h, read-out: DIZ
Bacillus subtilis [22] = test: Antibacterial activity against Bacillus subtilis at 50 ug/ml after 24 hrs by agar well diffusion method; conditions: read-out: DIZ
Fusarium oxysporum [23] = test: Antifungal activity against Fusarium oxysporum at 200 ug/ml after 72 hrs by agar well diffusion method; conditions: read-out: DIZ
Escherichia coli [24] = test: Antibacterial activity against Escherichia coli ATCC 8739 at 300 ug/ml after 24 hrs by agar well diffusion method; conditions: ATCC 8739, 24 h, read-out: DIZ
Aspergillus flavus [25] = test: Antifungal activity against Aspergillus flavus at 500 ug/ml after 72 hrs by agar well diffusion method; conditions: read-out: DIZ
Fusarium oxysporum [26] = test: Antifungal activity against Fusarium oxysporum at 500 ug/ml after 72 hrs by agar well diffusion method; conditions: read-out: DIZ
Staphylococcus aureus [27] = test: Antibacterial activity against Staphylococcus aureus ATCC 6538 at 100 ug/ml after 24 hrs by agar well diffusion method; conditions: ATCC 6538, 24 h, read-out: DIZ
Rhizoctonia solani [28] = test: Antifungal activity against Rhizoctonia solani at 300 ug/ml after 72 hrs by agar well diffusion method; conditions: read-out: DIZ
Klebsiella pneumoniae [29] = test: Antibacterial activity against Klebsiella pneumoniae at 300 ug/ml after 24 hrs by agar well diffusion method; conditions: read-out: DIZ
Staphylococcus aureus [30] = test: Antibacterial activity against Staphylococcus aureus ATCC 6538 at 200 ug/ml after 24 hrs by agar well diffusion method; conditions: ATCC 6538, 24 h, read-out: DIZ
Aspergillus flavus [31] = test: Antifungal activity against Aspergillus flavus at 300 ug/ml after 72 hrs by agar well diffusion method; conditions: read-out: DIZ
Klebsiella pneumoniae [32] = test: Antibacterial activity against Klebsiella pneumoniae at 500 ug/ml after 24 hrs by agar well diffusion method; conditions: read-out: DIZ
Aspergillus flavus [33] = test: Antifungal activity against Aspergillus flavus at 50 ug/ml after 72 hrs by agar well diffusion method; conditions: read-out: DIZ
Aspergillus niger [34] = test: Antifungal activity against Aspergillus niger at 200 ug/ml after 72 hrs by agar well diffusion method; conditions: read-out: DIZ
Bacillus subtilis [35] = test: Antibacterial activity against Bacillus subtilis at 200 ug/ml after 24 hrs by agar well diffusion method; conditions: read-out: DIZ
Klebsiella pneumoniae [36] = test: Antibacterial activity against Klebsiella pneumoniae at 50 ug/ml after 24 hrs by agar well diffusion method; conditions: read-out: DIZ
Escherichia coli [37] = test: Antibacterial activity against Escherichia coli ATCC 8739 at 200 ug/ml after 24 hrs by agar well diffusion method; conditions: ATCC 8739, 24 h, read-out: DIZ
Rhizoctonia solani [38] = test: Antifungal activity against Rhizoctonia solani at 500 ug/ml after 72 hrs by agar well diffusion method; conditions: read-out: DIZ
Klebsiella pneumoniae [39] = test: Antibacterial activity against Klebsiella pneumoniae after 24 hrs by agar well diffusion method
Aspergillus flavus [40] = test: Antifungal activity against Aspergillus flavus at 200 ug/ml after 72 hrs by agar well diffusion method; conditions: read-out: DIZ
Rhizoctonia solani [41] = test: Antifungal activity against Rhizoctonia solani at 50 ug/ml after 72 hrs by agar well diffusion method; conditions: read-out: DIZ
Aspergillus flavus [42] = test: Antifungal activity against Aspergillus flavus at 100 ug/ml after 72 hrs by agar well diffusion method; conditions: read-out: DIZ
Fusarium oxysporum [43] = test: Antifungal activity against Fusarium oxysporum at 300 ug/ml after 72 hrs by agar well diffusion method; conditions: read-out: DIZ
Escherichia coli [44] = test: Antibacterial activity against Escherichia coli ATCC 8739 at 100 ug/ml after 24 hrs by agar well diffusion method; conditions: ATCC 8739, 24 h, read-out: DIZ
Aspergillus niger [45] = test: Antifungal activity against Aspergillus niger at 100 ug/ml after 72 hrs by agar well diffusion method; conditions: read-out: DIZ
Staphylococcus aureus [46] = test: Antibacterial activity against Staphylococcus aureus ATCC 6538 at 500 ug/ml after 24 hrs by agar well diffusion method; conditions: ATCC 6538, 24 h, read-out: DIZ
Bacillus subtilis [47] = test: Antibacterial activity against Bacillus subtilis at 500 ug/ml after 24 hrs by agar well diffusion method; conditions: read-out: DIZ
Aspergillus flavus [48] = test: Antifungal activity against Aspergillus flavus after 72 hrs by agar well diffusion method

Work on CC1(C)OC(=O)C(=Cc2c[nH]c3ccccc23)C(=O)O1 yielded an MIC (Rhizoctonia solani [1]) of 25 µg/mL (≈ 92.2 µM), an MIC (Staphylococcus aureus [2]) of 20 µg/mL (≈ 73.7 µM) and an MIC (Bacillus subtilis [3]) of 20 µg/mL (≈ 73.7 µM). For the same molecule, the zone of inhibition at 100 µg/mL (Klebsiella pneumoniae [4]) was 16 mm, the zone of inhibition at 300 µg/mL (Aspergillus niger [5]) was 19 mm and the zone of inhibition at 200 µg/mL (Rhizoctonia solani [6]) was 19 mm. The zone of inhibition at 50 µg/mL (Aspergillus niger [7]) was 7 mm, the zone of inhibition at 100 µg/mL (Bacillus subtilis [8]) was 11 mm and the MIC (Escherichia coli [9]) was 10 µg/mL (≈ 36.9 µM). It also gave a zone of inhibition at 500 µg/mL (Escherichia coli [10]) of 32 mm, an MIC (Aspergillus niger [11]) of 30 µg/mL (≈ 111 µM) and an MIC (Fusarium oxysporum [12]) of 25 µg/mL (≈ 92.2 µM). The zone of inhibition at 500 µg/mL (Aspergillus niger [13]) was 26 mm, the zone of inhibition at 50 µg/mL (Escherichia coli [14]) was 10 mm and the zone of inhibition at 100 µg/mL (Fusarium oxysporum [15]) was 14 mm. The zone of inhibition at 200 µg/mL (Klebsiella pneumoniae [16]) was 20 mm, the zone of inhibition at 50 µg/mL (Fusarium oxysporum [17]) was 10 mm and the zone of inhibition at 300 µg/mL (Staphylococcus aureus [18]) was 20 mm. It also gave a zone of inhibition at 100 µg/mL (Rhizoctonia solani [19]) of 15 mm, a zone of inhibition at 300 µg/mL (Bacillus subtilis [20]) of 17 mm and a zone of inhibition at 50 µg/mL (Staphylococcus aureus [21]) of 8 mm. The zone of inhibition at 50 µg/mL (Bacillus subtilis [22]) was 6 mm, the zone of inhibition at 200 µg/mL (Fusarium oxysporum [23]) was 17 mm and the zone of inhibition at 300 µg/mL (Escherichia coli [24]) was 22 mm. For the same molecule, the zone of inhibition at 500 µg/mL (Aspergillus flavus [25]) was 24 mm, the zone of inhibition at 500 µg/mL (Fusarium oxysporum [26]) was 31 mm and the zone of inhibition at 100 µg/mL (Staphylococcus aureus [27]) was 12 mm. It also gave a zone of inhibition at 300 µg/mL (Rhizoctonia solani [28]) of 24 mm, a zone of inhibition at 300 µg/mL (Klebsiella pneumoniae [29]) of 25 mm and a zone of inhibition at 200 µg/mL (Staphylococcus aureus [30]) of 16 mm. For the same molecule, the zone of inhibition at 300 µg/mL (Aspergillus flavus [31]) was 17 mm, the zone of inhibition at 500 µg/mL (Klebsiella pneumoniae [32]) was 33 mm and the zone of inhibition at 50 µg/mL (Aspergillus flavus [33]) was 5 mm. It also gave a zone of inhibition at 200 µg/mL (Aspergillus niger [34]) of 15 mm, a zone of inhibition at 200 µg/mL (Bacillus subtilis [35]) of 14 mm and a zone of inhibition at 50 µg/mL (Klebsiella pneumoniae [36]) of 11 mm. It also gave a zone of inhibition at 200 µg/mL (Escherichia coli [37]) of 18 mm, a zone of inhibition at 500 µg/mL (Rhizoctonia solani [38]) of 32 mm and an MIC (Klebsiella pneumoniae [39]) of 10 µg/mL (≈ 36.9 µM). The zone of inhibition at 200 µg/mL (Aspergillus flavus [40]) was 13 mm, the zone of inhibition at 50 µg/mL (Rhizoctonia solani [41]) was 10 mm and the zone of inhibition at 100 µg/mL (Aspergillus flavus [42]) was 10 mm. For the same molecule, the zone of inhibition at 300 µg/mL (Fusarium oxysporum [43]) was 21 mm, the zone of inhibition at 100 µg/mL (Escherichia coli [44]) was 15 mm and the zone of inhibition at 100 µg/mL (Aspergillus niger [45]) was 11 mm. The zone of inhibition at 500 µg/mL (Staphylococcus aureus [46]) was 27 mm, the zone of inhibition at 500 µg/mL (Bacillus subtilis [47]) was 25 mm and the MIC (Aspergillus flavus [48]) was 35 µg/mL (≈ 129 µM).
